# Assay results: patent US11186576B2, “Pyrazolo[1,5-A][1,3,5]triazine and pyrazolo[1,5-A]pyrimidine derivatives as CDK inhibitors” (Aurigene Discovery Technologies Limited, priority 2015, dated 2021)
# Target: CDK7/CycH/MNAT1 (Homo sapiens (Human), UniProt P50613)
# Assay: Biochemical assay for CDK7 (TR-FRET kinase assay)
# Conditions: 60 min pre-incubation, 1 mM ATP; for inhibition at 10 µM / % inhibition @ 10 μM: 10 μM compound; for inhibition at 10 µM: read-out: % inhibition @ 10 μM; for IC50: read-out: IC50
# Procedure: The ability of compounds to inhibit CDK7 kinase activity was tested in a TR-FRET assay using 5 nM of CDK7/CycH/MNAT1 obtained from Invitrogen, USA. Test compounds were pre-incubated with the kinase at room temperature for 60 min. After incubation, substrate mix [100 nM Ultra-light MBP (Perkin Elmer, USA) and 1 mM ATP (Sigma)] was added. The above reaction was stopped by the addition of 40 mM EDTA after 60 minutes of kinase reaction. 1 nM Eu-labelled antiphospho-MBP antibody [Perkin Elmer, USA] was added, mixed well and the fluorescence emission at 615 nm and 665 nm [excitation at 340 nm] was measured. The final DMSO concentration in the assay was 1%. For IC50 determination, appropriate concentrations were made by ⅓^rd serial dilutions of 10 mM DMSO stock solution of test compound. All the fluorescence measurements were made in a Victor 3 Multilabel Counter [Perkin Elmer, USA]. The IC50 was determined by fitting the dose response data to sigmoidal curve fitting equation using GraphPad Prism software V5. To identify compounds that inhibit CDK7 irreversibly, time depended inhibition studies were carried by pre-incubating compound with the enzyme at three time points (20, 60 and 180 min) and carrying out assay as described above.
# CDK7/CycH/MNAT1, sequence (P50613 whole entry): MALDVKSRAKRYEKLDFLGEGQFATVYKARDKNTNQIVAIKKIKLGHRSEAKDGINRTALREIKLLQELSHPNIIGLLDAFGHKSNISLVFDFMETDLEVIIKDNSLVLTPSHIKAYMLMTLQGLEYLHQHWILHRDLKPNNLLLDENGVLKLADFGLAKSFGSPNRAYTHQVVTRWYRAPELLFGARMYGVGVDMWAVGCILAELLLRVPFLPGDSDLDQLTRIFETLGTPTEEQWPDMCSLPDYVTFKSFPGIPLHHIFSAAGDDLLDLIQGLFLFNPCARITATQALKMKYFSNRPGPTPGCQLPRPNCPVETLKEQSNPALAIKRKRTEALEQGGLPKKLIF
# CDK7/CycH/MNAT1, sequence (P51946 whole entry partner): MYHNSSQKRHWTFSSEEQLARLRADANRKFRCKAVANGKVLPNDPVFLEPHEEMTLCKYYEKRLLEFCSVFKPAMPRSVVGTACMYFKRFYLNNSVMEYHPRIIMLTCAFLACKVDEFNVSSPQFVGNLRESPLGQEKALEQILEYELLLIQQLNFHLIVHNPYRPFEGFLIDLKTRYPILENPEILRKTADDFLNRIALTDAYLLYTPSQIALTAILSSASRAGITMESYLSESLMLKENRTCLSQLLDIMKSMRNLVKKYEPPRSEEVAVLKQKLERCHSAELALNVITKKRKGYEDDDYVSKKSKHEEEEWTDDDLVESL
# CDK7/CycH/MNAT1, sequence (P51948 whole entry partner): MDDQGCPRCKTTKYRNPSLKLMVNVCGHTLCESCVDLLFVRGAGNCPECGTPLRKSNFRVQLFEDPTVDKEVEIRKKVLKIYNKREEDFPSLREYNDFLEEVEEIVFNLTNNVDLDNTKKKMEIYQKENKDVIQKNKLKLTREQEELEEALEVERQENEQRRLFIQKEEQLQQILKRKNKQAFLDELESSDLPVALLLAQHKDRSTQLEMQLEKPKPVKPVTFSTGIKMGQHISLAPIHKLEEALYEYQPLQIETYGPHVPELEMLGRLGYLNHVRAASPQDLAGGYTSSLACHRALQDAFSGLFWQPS
Compound,inhibition at 10 µM [%],IC50 [nM],% inhibition @ 10 μM [%]
"C=CC(=O)N[C@H]1CC[C@@H](C(=O)Nc2cccc(CNc3nc(NC4CCCC(O)C4)nc4c(C(C)C)cnn34)c2)CC1 (single isomer, unassigned) [Compound 10, 4-acrylamido-N-(3-(((2-((3-hydroxycyclohexyl)amino)-8-isopropylpyrazolo[1,5-a][1,3,5]triazin-4-yl)amino)methyl)phenyl)cyclohexane-1-carboxamide]",89,300 to 1000,
"C=CC(=O)N[C@H]1CC[C@@H](C(=O)Nc2cccc(CNc3nc(NC4CCCC(O)C4)nc4c(C(C)C)cnn34)c2)CC1 (single isomer, unassigned) [Compound 11, 4-acrylamido-N-(3-(((2-((3-hydroxycyclohexyl)amino)-8-isopropylpyrazolo[1,5-a][1,3,5]triazin-4-yl)amino)methyl)phenyl)cyclohexane-1-carboxamide]",,300 to 1000,89
"C=CC(=O)N[C@H]1CC[C@@H](C(=O)Nc2cccc(CNc3nc(OC4CCOCC4F)nc4c(C(C)C)cnn34)c2)CC1 (single isomer, unassigned) [Compound 98, 4-acrylamido-N-(3-(((2-((3-fluorotetrahydro-2H-pyran-4-yl)oxy)-8-isopropylpyrazolo[1,5-a][1,3,5]triazin-4-yl)amino)methyl)phenyl)cyclohexane-1-carboxamide]",88,300 to 1000,
"C=CC(=O)N[C@H]1CC[C@@H](C(=O)Nc2cccc(CNc3nc(N[C@H]4CC[C@H](O)CC4)nc4c(C(C)C)cnn34)c2)CC1 [Compound 9, (1,4-cis)-4-acrylamido-N-(3-(((2-(((1r,4r)-4-hydroxycyclohexyl)amino)-8-isopropylpyrazolo[1,5-a][1,3,5]triazin-4-yl)amino)methyl)phenyl)cyclohexane-1-carboxamide]",85,> 1000,
"CC(C)=CC(=O)N1CCC1C(=O)Nc1cccc(CNc2nc(NC3CCOCC3)nc3c(C(C)C)cnn23)c1 (stereo not shown) [Compound 17, N-(3-(((8-isopropyl-2-((tetrahydro-2H-pyran-4-yl)amino)pyrazolo[1,5-a][1,3,5]triazin-4-yl)amino)methyl)phenyl)-1-(3-methylbut-2-enoyl)azetidine-2-carboxamide]",84,> 1000,
"C=CC(=O)N1CC[C@@H]1C(=O)Nc1cccc(CNc2nc(NC3CCOCC3)nc3c(C(C)C)cnn23)c1 [Compound 19, (R)-1-acryloyl-N-(3-(((8-isopropyl-2-((tetrahydro-2H-pyran-4-yl)amino)pyrazolo[1,5-a][1,3,5]triazin-4-yl)amino)methyl)phenyl)azetidine-2-carboxamide]",100,< 300,
"C=CC(=O)N1CCOCC1C(=O)Nc1ccc(CC)c(CNc2nc(NC3CCOCC3)nc3c(C(C)C)cnn23)c1 (stereo not shown) [Compound 26, 4-acryloyl-N-(4-ethyl-3-(((8-isopropyl-2-((tetrahydro-2H-pyran-4-yl)amino)pyrazolo[1,5-a][1,3,5]triazin-4-yl)amino)methyl)phenyl)morpholine-3-carboxamide]",95,300 to 1000,
"C=CC(=O)N1CCC1C(=O)Nc1ccc(C)c(CNc2nc(NC3CCOCC3)nc3c(C(C)C)cnn23)c1 (stereo not shown) [Compound 27, 1-acryloyl-N-(3-(((8-isopropyl-2-((tetrahydro-2H-pyran-4-yl)amino)pyrazolo[1,5-a][1,3,5]triazin-4-yl)amino)methyl)-4-methylphenyl)azetidine-2-carboxamide]",100,< 300,
"C=CC(=O)N1CCC1C(=O)Nc1cc(CNc2nc(NC3CCOCC3)nc3c(C(C)C)cnn23)ccc1C (stereo not shown) [Compound 28, 1-acryloyl-N-(5-(((8-isopropyl-2-((tetrahydro-2H-pyran-4-yl)amino)pyrazolo[1,5-a][1,3,5]triazin-4-yl)amino)methyl)-2-methylphenyl)azetidine-2-carboxamide]",99,< 300,
"C=CC(=O)N1CCC1C(=O)Nc1cc(F)cc(CNc2nc(NC3CCOCC3)nc3c(C(C)C)cnn23)c1 (stereo not shown) [Compound 31, 1-acryloyl-N-(3-fluoro-5-(((8-isopropyl-2-((tetrahydro-2H-pyran-4-yl)amino)pyrazolo[1,5-a][1,3,5]triazin-4-yl)amino)methyl)phenyl)azetidine-2-carboxamide]",100,< 300,
"C=CC(=O)N1CCCCC1C(=O)Nc1ccc(C)c(CNc2nc(NC3CCOCC3)nc3c(C(C)C)cnn23)c1 (stereo not shown) [Compound 34, 1-acryloyl-N-(3-(((8-isopropyl-2-((tetrahydro-2H-pyran-4-yl)amino)pyrazolo[1,5-a][1,3,5]triazin-4-yl)amino)methyl)-4-methylphenyl)piperidine-2-carboxamide]",73,> 1000,
"C=CC(=O)N1CCCCC1C(=O)Nc1cccc(CNc2nc(NC3CCOCC3)nc3c(C(C)C)cnn23)c1F (stereo not shown) [Compound 35, 1-acryloyl-N-(2-fluoro-3-(((8-isopropyl-2-((tetrahydro-2H-pyran-4-yl)amino)pyrazolo[1,5-a][1,3,5]triazin-4-yl)amino)methyl)phenyl)piperidine-2-carboxamide]",99,< 300,

# Continued, values first:
inhibition at 10 µM [%],IC50 [nM],% inhibition @ 10 μM [%],Compound
92,300 to 1000,,"C=CC(=O)N1CCC(C(=O)Nc2cccc(CNc3nc(NC4CCCC(O)C4)nc4c(C(C)C)cnn34)c2)C1 (single isomer, unassigned) [Compound 12, 1-acryloyl-N-(3-(((2-((3-hydroxycyclohexyl)amino)-8-isopropylpyrazolo[1,5-a][1,3,5]triazin-4-yl)amino)methyl)phenyl)pyrrolidine-3-carboxamide]"
,> 1000,82,"C=CC(=O)N[C@H]1CC[C@@H](C(=O)Nc2cccc(CNc3nc(OC4CCOCC4F)nc4c(C(C)C)cnn34)c2)CC1 (single isomer, unassigned) [Compound 99, 4-acrylamido-N-(3-(((2-((3-fluorotetrahydro-2H-pyran-4-yl)oxy)-8-isopropylpyrazolo[1,5-a][1,3,5]triazin-4-yl)amino)methyl)phenyl)cyclohexane-1-carboxamide]"
91,> 1000,,"C=CC(=O)N[C@H]1CC[C@@H](C(=O)Nc2cccc(CNc3nc(NC4CCOCC4)nc4c(C(C)C)cnn34)c2)CC1 [Compound 7, (1,4-cis)-4-acrylamido-N-(3-(((8-isopropyl-2-((tetrahydro-2H-pyran-4-yl)amino)pyrazolo[1,5-a][1,3,5]triazin-4-yl)amino)methyl)phenyl)cyclohexane-1-carboxamide]"
,< 300,,"C=CC(=O)N1CCCCC1C(=O)Nc1cccc(CNc2nc(N[C@H]3CCCOC3)nc3c(C(C)C)cnn23)c1 (stereo partly drawn) [Compound 16, 1-acryloyl-N-(3-(((8-isopropyl-2-(((S)-tetrahydro-2H-pyran-3-yl)amino)pyrazolo[1,5-a][1,3,5]triazin-4-yl)amino)methyl)phenyl)piperidine-2-carboxamide]"
98,< 300,,"C=CC(=O)NC1CCCC(C(=O)Nc2cccc(CNc3nc(NC4CCOCC4)nc4c(C(C)C)cnn34)c2)C1 (stereo not shown) [Compound 22, 3-acrylamido-N-(3-(((8-isopropyl-2-((tetrahydro-2H-pyran-4-yl)amino)pyrazolo[1,5-a][1,3,5]triazin-4-yl)amino)methyl)phenyl)cyclohexane-1-carboxamide]"
98,< 300,,"C=CC(=O)N1CCOC(C(=O)Nc2cccc(CNc3nc(NC4CCOCC4)nc4c(C(C)C)cnn34)c2)C1 (stereo not shown) [Compound 23, 4-acryloyl-N-(3-(((8-isopropyl-2-((tetrahydro-2H-pyran-4-yl)amino)pyrazolo[1,5-a][1,3,5]triazin-4-yl)amino)methyl)phenyl)morpholine-2-carboxamide]"
99,< 300,,"C#CC(=O)N1CCOCC1C(=O)Nc1cccc(CNc2nc(NC3CCOCC3)nc3c(C(C)C)cnn23)c1 (stereo not shown) [Compound 25, N-(3-(((8-isopropyl-2-((tetrahydro-2H-pyran-4-yl)amino)pyrazolo[1,5-a][1,3,5]triazin-4-yl)amino)methyl)phenyl)-4-propioloylmorpholine-3-carboxamide]"
98,< 300,,"C=CC(=O)N1CCC1C(=O)Nc1ccc(F)c(CNc2nc(NC3CCOCC3)nc3c(C(C)C)cnn23)c1 (stereo not shown) [Compound 29, 1-acryloyl-N-(4-fluoro-3-(((8-isopropyl-2-((tetrahydro-2H-pyran-4-yl)amino)pyrazolo[1,5-a][1,3,5]triazin-4-yl)amino)methyl)phenyl)azetidine-2-carboxamide]"
98,< 300,,"C=CC(=O)N1CCC1C(=O)Nc1cccc(CNc2nc(NC3CCOCC3)nc3c(C(C)C)cnn23)c1F (stereo not shown) [Compound 30, 1-acryloyl-N-(2-fluoro-3-(((8-isopropyl-2-((tetrahydro-2H-pyran-4-yl)amino)pyrazolo[1,5-a][1,3,5]triazin-4-yl)amino)methyl)phenyl)azetidine-2-carboxamide]"
86,300 to 1000,,"C=CC(=O)N1CCC(C(=O)Nc2cc(F)cc(CNc3nc(NC4CCOCC4)nc4c(C(C)C)cnn34)c2)C1 (stereo not shown) [Compound 33, 1-acryloyl-N-(3-fluoro-5-(((8-isopropyl-2-((tetrahydro-2H-pyran-4-yl)amino)pyrazolo[1,5-a][1,3,5]triazin-4-yl)amino)methyl)phenyl)pyrrolidine-3-carboxamide]"
